# Target: T1, recombinant human cGAS (aa147-522) (Homo sapiens, UniProt Q8N884)
# T1 construct: recombinant human cGAS (aa147-522); His6-SUMO (cleaved yes); made in house; host or cells: E. coli BL21/pLys
# Experiment: In vitro inhibition assay of cGAS activity (ATP consumption, KinaseGlo Max)
# Format: biochemical
# Conditions: Table 2, read-out: cGAS Inhibition Results IC50
# Description: Expression and Purification of Recombinant cGAS Protein: cDNA encoding full-length or amino acids […] of human cGAS was inserted into a modified pET28a vector containing an in-frame His6-SUMO tag. The E. coli strain BL21/pLys harboring the plasmid was induced with 0.5 mM IPTG at 18° C. overnight. His6-SUMO tag was removed by a SUMO protease digestion following purification of the His6-SUMO-cGAS as described previously (Sun et al, 2013, Science 339, 786).
# In vitro inhibition assay of cGAS activity: A 60 μL mixture containing 20 mM Tris-Cl, pH 7.5, 5 mM MgCl2, 0.2 mg/mL BSA, 0.01 mg/mL Herring testis DNA, 6.6 μM ATP, 0.1 mM GTP, 1.5 μg/mL of recombinant human cGAS (aa147-522) and serial dilutions of a test compound in DMSO was added to a 96-well plate and incubated at 37° C. for 20 minutes. At the end of reaction, 40 μL of KinaseGlo Max (Promega) was added and chemiluminescence was measured with a luminometer. Inhibitory effect of a compound is evaluated by plotting percentage of ATP consumption against logarithm of compound concentrations. IC50 value was calculated using GraphPad Prism 8 (GraphPad Software, Inc.).
# The letter codes for cGAS IC50 include: A (<2 μM); B (2-30 μM); C (>30 μM).
# T1 sequence (Q8N884 147-522): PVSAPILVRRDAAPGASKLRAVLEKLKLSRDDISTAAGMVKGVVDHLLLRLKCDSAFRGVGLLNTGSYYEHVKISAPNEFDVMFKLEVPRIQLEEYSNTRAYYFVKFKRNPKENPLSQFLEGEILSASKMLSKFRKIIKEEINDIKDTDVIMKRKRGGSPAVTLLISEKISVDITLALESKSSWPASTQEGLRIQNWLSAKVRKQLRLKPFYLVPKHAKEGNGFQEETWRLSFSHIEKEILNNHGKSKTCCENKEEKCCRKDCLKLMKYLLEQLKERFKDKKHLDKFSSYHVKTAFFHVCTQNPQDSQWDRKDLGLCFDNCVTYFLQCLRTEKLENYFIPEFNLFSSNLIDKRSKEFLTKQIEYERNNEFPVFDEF
row,SMILES,IC50
1,O=C(O)CN(CCCO)c1cc(-n2ccnc2)c2ccc(Cl)c(Cl)c2n1 [I-173],2 to 30 µM
2,O=C(O)c1cccc(COc2cc(-n3ccnc3)c3ccc(Cl)cc3n2)c1 [I-281],2 to 30 µM
3,"O=C(O)c1cc(-c2cc(-n3ccnc3)c3ccc(Cl)c(Cl)c3n2)ccc1O [I-42, 5-(7,8-dichloro-4-(1H-imidazol-1-yl)quinolin-2-yl)-2-hydroxybenzoic acid]",< 2 µM
4,O=C(O)C1CCN(c2cc(-n3ccnc3)c3ccc(Cl)cc3n2)C1 (stereo not drawn) [I-445],2 to 30 µM
5,Brc1ccc2c(-n3ccnc3)cc(-c3cccnc3)nc2c1 [I-384],2 to 30 µM
6,O=C(O)c1cc2c(c(-c3cc(-n4ccnc4)c4ccc(Cl)cc4n3)c1)OC(F)(F)O2 [I-38],> 30 µM
7,Brc1ccc2c(-n3cccn3)ccnc2c1 [I-414],> 30 µM
8,O=C(O)CNC(=O)C[C@@H]1CCCN1c1cc(-c2cn[nH]c2)c2ccc(Cl)c(Cl)c2n1 [I-326],< 2 µM
9,O=C(O)C1CN(c2cc(-n3ccnc3)c3ccc(Cl)cc3n2)CCS1 (stereo not drawn) [I-89],2 to 30 µM
10,Brc1ccc2nccc(-n3cccn3)c2c1 [I-415],> 30 µM
11,"O=C(O)CNc1cc(-n2ccnc2)c2ccc(Cl)cc2n1 [I-166, (7-chloro-4-(1H-imidazol-1-yl)quinolin-2-yl)glycine]",2 to 30 µM
12,OCC1CN(c2cc(-n3ccnc3)c3ccc(Cl)cc3n2)CCCO1 (stereo not drawn) [I-99],2 to 30 µM
13,"CN1CCN(c2cc(-n3ccnc3)c3ccc(Cl)c(Cl)c3n2)CC1C(=O)O (stereo not drawn) [I-82, 4-(7,8-Dichloro-4-(1H-imidazol-1-yl)quinolin-2-yl)-1-methylpiperazine-2-carboxylic acid]",< 2 µM
14,C[C@H](Nc1cc(-c2cn[nH]c2)c2ccc(Cl)c(Cl)c2n1)C(=O)O [I-181],> 30 µM
15,CN(CCC(=O)N1CCC[C@H]1C(=O)O)c1cc(-c2cn[nH]c2)c2ccc(Cl)c(Cl)c2n1 [I-389],< 2 µM
16,"O=C(O)C1CN(c2cc(-n3ccnc3)c3ccc(Cl)c(Cl)c3n2)CCN1 (stereo not drawn) [I-79, 4-(7,8-Dichloro-4-(1H-imidazol-1-yl)quinolin-2-yl)piperazine-2-carboxylic acid]",< 2 µM
17,CC(C)[C@H](CS(=O)(=O)O)Nc1cc(-n2ccnc2)c2ccc(Cl)cc2n1 [I-163],> 30 µM
18,O=C(O)C1CCCCC1Nc1cc(-n2ccnc2)c2ccc(Cl)cc2n1 (stereo not drawn) [I-333],> 30 µM

# Same assay, conditions: Table 3, read-out: cGAS Inhibition Results IC50
row,SMILES,IC50
1,CC(C)(C)c1ccc2c(-n3ccnc3)cc(N3CCC[C@H]3COCCC(=O)O)nc2c1 [I-858],> 30 µM
2,COCCS(=O)(=O)NCCN(C)c1cc(-n2ccnc2)c2ccc(Cl)c(Cl)c2n1 [I-610],< 2 µM
3,N#C[C@@H]1CCCN1c1cc(-n2ccnc2)c2ccc(Cl)c(Cl)c2n1 [I-495],< 2 µM
4,O=C(O)Cc1csc(CNc2cc(-n3ccnc3)c3ccc(Cl)c(Cl)c3n2)n1 [I-881],< 2 µM
5,"CN(CCS(=O)(=O)NCCO)c1cc(-n2ccnc2)c2ccc(Cl)c(Cl)c2n1 [I-624, 2-((7,8-dichloro-4-(1H-imidazol-1-yl)quinolin-2-yl)(methyl)amino)-N-(2-hydroxyethyl)ethane-1-sulfonamide]",< 2 µM
6,O[C@@H]1CN(c2cc(-n3ccnc3)c3ccc(Cl)c(Cl)c3n2)C[C@H]1O [I-501],< 2 µM
7,"CC(=O)O[C@H]1CCN(c2cc(-n3ccnc3)c3ccc(Cl)c(Cl)c3n2)[C@@H]1C(=O)O [I-643, (2S,3S)-3-acetoxy-1-(7,8-dichloro-4-(1H-imidazol-1-yl)quinolin-2-yl)pyrrolidine-2-carboxylic acid]",< 2 µM
8,CC(C)N(CCCOc1ccccc1C(=O)O)c1cc(-n2ccnc2)c2ccc(Cl)c(Cl)c2n1 [I-852],2 to 30 µM
9,O=C(O)[C@H]1[C@@H](O)CCN1c1cc(-n2ccnc2)c2ccc(Cl)c(Cl)c2n1 [I-499],< 2 µM
10,O=C1NC(=O)[C@H](CS(=O)(=O)NC[C@@H]2CCCN2c2cc(-n3ccnc3)c3ccc(Cl)c(Cl)c3n2)N1 [I-637],< 2 µM
11,CN(CCNS(=O)(=O)c1cccc(C(=O)O)c1)c1cc(-n2ccnc2)c2ccc(Cl)c(Cl)c2n1 [I-623],2 to 30 µM
12,O=C(O)C12CC(CN1c1cc(-n3ccnc3)c3ccc(Cl)c(Cl)c3n1)C2 [I-474],2 to 30 µM

# — patent publication US11873291B2, “Quinoline cGAS antagonist compounds” (ImmuneSensor Therapeutics, Inc., priority 2020, dated 2024)
